Source: patent US20230172915A1, “DHODH INHIBITOR FOR THE TREATMENT OF COVID-19” (priority 2020, published 2023)
Like-named read-outs stand apart in the source and are kept apart here.

Key:
[1] = Cytotoxicity in Vero cells by intracellular ATP; details: African green monkey
[2] = test system: TH2 cells plus venular endothelial cells (/TH2); test: BioMAP profiling, /TH2 system; format: cell-based; details: Endothelial cell; for inhibition at 0.1 µM: /TH2, 100 nM
Procedure: (§1) The effect of PTC299 on cytokine production was assessed using BioMAP profiling (BioSeek, now part of Eurofins). The BioMAP system is comprised of complex co-cultures of primary peripheral blood mononuclear cells (PBMCs) with other cell types including B cells, fibroblasts, and endothelial cells allowing for the measurement of physiologically relevant biomarker readouts of the activity of a compound. Using this system, cytokine production was evaluated in the following models of primary cell disease models: • Peripheral blood mononuclear cells (PBMCs) plus venular endothelial cells (sAg) • PBMCs plus B cells (BT) • PBMCs plus fibroblasts (HDFSAg) • TH2 cells plus venular endothelial cells (/TH2).
(§2) Abbreviations in Table 4: BCR, B-cell receptor; BT System, co-culture of CD19+ B cells and PBMC that utilizes BCR stimulation and sub-mitogenic TCR stimulation; HDFSAg system, co-culture of human primary dermal fibroblasts and PBMC that is stimulated with sub-mitogenic TCR levels; IL, interleukin; PBMC, Peripheral Blood Mononuclear Cell; SAg system, co-culture of endothelial cells and PBMC stimulated with mitogenic levels of TCR ligands; TCR, T-cell receptor; /TH2 system, co-culture of endothelial cells and Th2 blasts stimulated with TCR ligands and cytokines; Th2, T helper type 2; VEGF, vascular endothelial growth factor.

[3] = test system: PBMCs plus venular endothelial cells (sAg); test: BioMAP profiling, SAg system; format: cell-based; details: for inhibition at 0.01 µM: 10 nM; for inhibition at 0.1 µM: 100 nM
Procedure: as §1, §2

[4] = test system: Rift Valley fever virus; test: microbe, parasite or virus in culture; format: cell-based; details: HeLa, read-out: EC50 Rift Valley fever virus
[5] = Clinical studies of PTC299 (oncology patients, healthy volunteers): tolerability; format: in vivo, human
Description: PTC299 has been extensively evaluated in 9 clinical studies; 5 were in oncology (n=134) and 4 were in healthy volunteers (n=169).
The rationale for this dosing is based on the following: • The dosing regimen utilizes results from PTC’s extensive clinical, safety, and clinical pharmacology experience with the capsule formulation of PTC299 that was used in prior solid tumor clinical studies. • The tablet formulation has approximately 40% relative bioavailability compared with the capsule when administered with food. • The 200 mg BID dosing for 7 days have been tested previously in healthy volunteers in study PTC299-ONC-002-HV with no serious adverse events. […] The dosing of 200 mg BID for the first 7 days will raise the exposure of the drug quickly to accommodate the need for rapid onset of PTC299 activity..

[6] = test system: DHODH; test: Rhesus monkey single oral dose PD (plasma DHO); format: in vivo, Rhesus monkeys; details: after single oral 10 mg/kg dose of PTC299, Rhesus monkey
Procedure: FIG. 10 is a plot of PTC299 plasma concentration (µg/mL) vs hours of plasma dihydroorotate (DHO) and PTC299 concentrations after a single dose of PTC299 was administered to a single monkey.
The dosing regimen used in the current study was also supported by experiments performed in Rhesus monkeys. Monkeys were given a single oral 10 mg/kg dose of PTC299. The DHO plasma level increased after dosing, peaked at 24 hours and then decreased, as illustrated in FIG. 10. […] The AUC for PTC299 is consistent with that observed in the healthy volunteer study PTC299-ONC-002-HV indicating this exposure would result in inhibition of DHODH and supports the use of the 200 mg BID dosing regimen in the current study.

[7] = Phase 1 multiple dose study PTC299-ONC-002-HV in healthy volunteers (PK, safety); format: in vivo, human; details: for AUC: read-out: AUCO-4
Procedure: The PK of the 200 mg BID dosed for 7 days and 50 mg for 7 days was evaluated in a phase 1, escalating, multiple dose, safety, tolerability, and PK study, PTC299-ONC-002-HV (N=32; n=24 received PTC299 and 8 received placebo).
Study PTC299-ONC-002-HV had 2 stages; in Stage 1, doses ranged from 0.3 to 1.2 mg/kg BID, and in Stage 2, a 1.6 mg/kg TID dose was administered. Patients received the capsule formulation of PTC299 for 7 days in both stages. Dose of 200 mg tablet is approximately 1.2 mg/kg capsule whereas 50 mg tablet is approximately 0.3 mg/kg of capsule formulation.

[8] = test system: primary acute myeloid leukemia (AML) blast cells; details: Cao 2020; cited from earlier work
[9] = test system: PBMCs plus B cells (BT); test: BioMAP profiling, BT system; format: cell-based; details: for inhibition at 0.01 µM: 10 nM; for inhibition at 0.1 µM: 100 nM
Procedure: as §1, §2

[10] = test system: HT1080 human fibrosarcoma cells; test: De novo pyrimidine nucleotide synthesis from 15N-glutamine in HT1080 cells; format: cell-based; details: 100 nM
Description: In this Example, fibrosarcoma cells were used to investigate the effect of PTC299 on pyrimidine nucleotide synthesis. Glutamine is an upstream precursor of dihydroorotic acid in the de novo pyrimidine synthesis pathway, as illustrated in FIG. 1.

[11] = human, plasma, oral, 0.3 mg/kg, 0.3 mg/kg BID, Day 1, capsule
[12] = human, plasma, oral, 0.3 mg/kg, 0.3 mg/kg BID, Day 7, capsule
[13] = human, plasma, oral, 0.6 mg/kg, 0.6 mg/kg BID, Day 1, capsule
[14] = human, plasma, oral, 0.6 mg/kg, 0.6 mg/kg BID, Day 7, capsule
[15] = human, plasma, oral, 1.2 mg/kg, 1.2 mg/kg BID, Day 1, capsule
[16] = human, plasma, oral, 1.2 mg/kg, 1.2 mg/kg BID, Day 7, capsule
[17] = human, plasma, oral, 1.6 mg/kg, 1.6 mg/kg TID, Day 1, capsule
[18] = human, plasma, oral, 1.6 mg/kg, 1.6 mg/kg TID, Day 7, capsule
[19] = read-out: % Inhibition s-IL-17F

Structure (SMILES): COc1ccc([C@H]2c3[nH]c4ccc(Cl)cc4c3CCN2C(=O)Oc2ccc(Cl)cc2)cc1 [PTC299, 4-chlorophenyl (S)-6-chloro-1-(4-methoxyphenyl)-1,3,4,9-tetrahydro-2H-pyrido[3,4-b]indole-2-carboxylate]
- CC50 at 48 h [1]: > 10000 nM
- inhibition at 0.01 µM ([2]; /TH2, 10 nM, read-out: % Inhibition MCP-1 (converted)): 21%
- inhibition at 0.1 µM ([2]; read-out: % Inhibition MCP-1 (converted)): 25%
- inhibition at 0.1 µM ([2]; read-out: % Inhibition sIL-17): 23%
- inhibition at 0.01 µM ([3]; read-out: % Inhibition IL-8): 27%
- inhibition at 0.01 µM ([3]; read-out: % Inhibition MCP-1): 31%
- inhibition at 0.1 µM ([3]; read-out: % Inhibition CD40): 29%
- inhibition at 0.1 µM ([3]; read-out: % Inhibition IL-8): 29%
- inhibition at 0.1 µM ([3]; read-out: % Inhibition MCP-1): 45%
- inhibition at 0.1 µM ([3]; read-out: % Inhibition Proliferation): 23%
- EC50 [4]: 13 nM
- tolerability across 9 clinical studies ([5]; oncology n=134, healthy volunteers n=169, range of dosing regimens): generally well tolerated
- dose-related hepatotoxicity ([5]; prior clinical studies): observed at higher doses and longer treatment durations (>85 days)
- AUC of plasma DHO [6]: 71.4 µg·h/mL
- Tl/2 ([7]; 0.3 mg/kg BID, Day 7, capsule): 164 h
- Tmax ([7]; 0.6 mg/kg BID, Day 1, capsule): 3.0 h
- Tl/2 ([7]; 0.6 mg/kg BID, Day 7, capsule): 210 h
- Tl/2 ([7]; 1.2 mg/kg BID, Day 7, capsule): 228 h
- Tl/2 ([7]; 1.6 mg/kg TID, Day 7, capsule): 225 h
- SAEs during study PTC299-ONC-002-HV ([7]; healthy volunteers, 7 days, 0.3 to 1.2 mg/kg BID and 1.6 mg/kg TID): no SAEs occurred
- Cmax [7, 11]: 280 ng/mL
- AUC [7, 11]: 4310 ng·h/mL
- Tmax ([7]; human, plasma, oral, 0.3 mg/kg, 0.3 mg/kg BID, Day 1, capsule, read-out: Tmax): 4 h
- Cmax [7, 12]: 510 ng/mL
- AUC [7, 12]: 8440 ng·h/mL
- Tmax ([7]; human, plasma, oral, 0.3 mg/kg, 0.3 mg/kg BID, Day 7, capsule, read-out: Tmax): 3.5 h
- Cmax [7, 13]: 710 ng/mL
- AUC [7, 13]: 10100 ng·h/mL
- Cmax [7, 14]: 1110 ng/mL
- AUC [7, 14]: 18600 ng·h/mL
- Tmax ([7]; human, plasma, oral, 0.6 mg/kg, 0.6 mg/kg BID, Day 7, capsule, read-out: Tmax): 4 h
- Cmax [7, 15]: 1140 ng/mL
- AUC [7, 15]: 18000 ng·h/mL
- Tmax ([7]; human, plasma, oral, 1.2 mg/kg, 1.2 mg/kg BID, Day 1, capsule, read-out: Tmax): 3.5 h
- Cmax [7, 16]: 2110 ng/mL
- AUC [7, 16]: ~32900 ng·h/mL
- Tmax ([7]; human, plasma, oral, 1.2 mg/kg, 1.2 mg/kg BID, Day 7, capsule, read-out: Tmax): 4 h
- Cmax [7, 17]: 1670 ng/mL
- AUC [7, 17]: 37100 ng·h/mL
- Cmax [7, 18]: 3530 ng/mL
- AUC [7, 18]: 78600 ng·h/mL
- effect on primary AML blast cells [8]: caused a G1/S cell-cycle arrest, inhibition of proliferation, and cell death
- inhibition at 0.01 µM ([9]; read-out: % Inhibition s-IL-6): 53%
- inhibition at 0.01 µM [9, 19]: 58%
- inhibition at 0.01 µM ([9]; read-out: % Inhibition sIL-17A): 68%
- inhibition at 0.01 µM ([9]; read-out: % Inhibition sIgG): 97%
- inhibition at 0.01 µM ([9]; read-out: % Inhibition sTNFa): 49%
- inhibition at 0.1 µM ([9]; read-out: % Inhibition s-IL-6): 72%
- inhibition at 0.1 µM [9, 19]: 74%
- inhibition at 0.1 µM ([9]; read-out: % Inhibition sIL-17A): 83%
- inhibition at 0.1 µM ([9]; read-out: % Inhibition sIgG): 98%
- inhibition at 0.1 µM ([9]; read-out: % Inhibition sTNFa): 66%
- inhibition at 0.1 µM ([9]; B-cell, read-out: % Inhibition B cell proliferation): 31%
- suppression of de novo pyrimidine nucleotide biosynthesis [10]: resulted in suppression of de novo pyrimidine nucleotide biosynthesis
